Data set [1] in a line: in vitro. The conditions noted are these: human.
Protocol: (§1) Compounds proposed in present invention were evaluated for their cytotoxic effect in LS-180 cells using MTT assay. In each well of a 96-well plate, 3×10^3 cells were grown in 100 μL of medium. After 24 h, each test molecules were added to achieve a final concentration of 10 to 0.01 μmol/L, respectively. After 48 h of treatment, 20 μL of 2.5 mg/mL MTT solution in phosphate buffer saline was added to each well. After 48 h, supernatant was removed and formazan crystals were dissolved in 200 μL of DMSO. Absorbance was then measured at 570 nm using an absorbance plate reader. Data are expressed as the percentage of viable cells in treated relative to non-treated conditions.
Data set [2] has as its system P-glycoprotein (Pgp). The experiment in a line: Pgp-induction assay, rhodamine123 (Rh123) cell exclusion method in LS180 cells. In kind it is cell-based. The conditions noted are these: for EC50: 48 h treatment, Rh123 fluorescence; for Pgp induction activity compared to parent natural product: 1b, 1g versus garcinol (1a), 2b versus isogarcinol (2a). On the procedure: All synthesized compounds were screened for their ability to induce Pgp by using rhodamine123 (Rh123) cell exclusion method. In this method, the Pgp function was evaluated in terms of rhodamine 123 (Rh123) accumulations and efflux. Briefly, the protocol used is as follows: Colorectal LS180 cells Colorectal LS-180 cells [obtained from ECACC (European Collection of Cell Cultures) catalogue number: 87021202; passage number 52] were seeded at a density of 2×10^4 per well of 96 well plate and were allowed to grow for next 24 h. Cells were further incubated with the test compounds, and were diluted to a final concentration of 100 nM and rifampicin (standard) to a final concentration of 10 μM in complete media for 48 h. The final concentration of DMSO was kept at 0.1%. Drugs were removed and cells were incubated with HANKS buffer for 40 minutes before further incubation with HANKS buffer (containing 10 μM of Rh123 as a Pgp substrate) for 90 minutes. At the end of Rh123 treatment cells were washed four times with cold PBS followed by cell lysis for 1 h by using 200 μl of lysis buffer (0.1% Triton X-100 and 0.2 N NaOH). A total of 100 μl of lysate was used for reading fluorescence of Rh123 at 485 nm/529 nm. Samples were normalized by dividing fluorescence of each sample with total protein present in the lysate. […] For EC50 determination, different concentrations of compound were used to treat LS180 cells for 48 h. EC50 was determined by plotting fluorescence of Rh123 against concentration of compound.

The nature of data set [3]: Cytotoxicity in LS-180 cells using MTT assay. The conditions noted are these: human. On the technique in general: Formazan colour is commonly taken as a measure of viable cells.
Protocol: as §1
[4] abbreviates: LS-180 cells, read-out: Pgp induction EC50.
Where [5] appears, read: LS180 cells, values in text, read-out: EC50 for p-glycoprotein induction activity.

Read-outs that look alike come from different tables or passages of the source. Where only a bound is given, the exact number is not on record here.

Usually IC50 stands for the concentration needed to halve the response being measured. In general, EC50 refers to the midpoint of the concentration-response curve. In data set [1], `C=C(C)[C@@H](CC=C(C)C)C[C@@]12C[C@@H](CC=C(C)C)C(C)(C)[C@@](CC=C(C)C)(C(=O)C(C(=O)c3ccc(O)c(O)c3)=C1O)C2=O` [Compound 1a, Garcinol, reference compound] registered an IC50 at 48 h of 20000 nM. For the same molecule, the EC50 in data set [2] (setting [4]) is 12 nM.
In the case of `C=C(C)C(CC=C(C)C)CC12CC(CC=C(C)C)C(C)(C)C(CC=C(C)C)(C(=O)C(C(=O)c3ccc(OC(=O)CCC)c(OC(=O)CCC)c3)=C1O)C2=O` (centres unmarked) [Compound 1b, 3′,4′-Di-(O-Butanoyl)-Garcinol], the concentration for a half-maximal effect (EC50) in data set [2] (setting [5]) amounted to 8.9 nM. Besides, in data set [2] (LS180 cells), the “Pgp induction activity compared to parent natural product” value is given as “better”.
For `C=C(C)C(CC=C(C)C)CC12CC(CC=C(C)C)C(C)(C)C(CC=C(C)C)(C(=O)C(C(=O)c3ccc(OCc4ccccc4[N+](=O)[O-])c(OCc4ccccc4[N+](=O)[O-])c3)=C1O)C2=O` (centres unmarked) [Compound 1g, 3′,4′-di-[O-(2″-nitro-benzyl)]-garcinol], in data set [2] (setting [5]), the EC50 stood at 6.8 nM. In data set [3], this molecule had an IC50 at 48 h of over 100000 nM.
Consider `CC(C)=CC[C@H]1C[C@@]23C[C@@H](CC=C(C)C)C(C)(C)[C@@](CC=C(C)C)(C(=O)C(C(=O)c4ccc(O)c(O)c4)=C2OC1(C)C)C3=O` [Compound 2a, Isogarcinol, reference compound], for which the EC50 in data set [2] (setting [4]) came out at 7 nM. In addition, half-maximal inhibition in data set [3] (IC50 at 48 h) required 11000 nM.
In the case of `CC(C)=CCOc1ccc(C(=O)C2=C3OC(C)(C)C(CC=C(C)C)CC34CC(CC=C(C)C)C(C)(C)C(CC=C(C)C)(C2=O)C4=O)cc1OCC=C(C)C` (centres unmarked) [Compound 2b, 3′,4′-di-(O-prenyl)-isogarcinol], the EC50 in data set [2] (setting [5]) is 2.9 nM. The “Pgp induction activity compared to parent natural product” value in data set [2] (LS180 cells) is given as “better”. The molecule further gave an IC50 at 48 h in data set [3] of 40000 nM.

These data come from patent US10202326B2, “Polyprenylated phloroglucinol compounds as potent P-glycoprotein inducers” (COUNCIL OF SCIENTIFIC & INDUSTRIAL RESEARCH, priority 2014, dated 2019).
